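These data come from cells grown in 96-well plates and exposed to compound for 48 hours at five concentrations. GI50 = concentration required for 50% inhibition of growth.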 Active and inactive are the calls of the source. Rule as the data show it: active = GI50 up to about 1.1 µM and inactive = higher.
Assays:
Experiment in all cases: NCI-60 cell line screen, 48 h
SK-MEL-28 = system: SK-MEL-28
COLO 205 = system: COLO 205
OVCAR-3 = system: OVCAR-3
A549 = system: A549
CCRF-CEM = system: CCRF-CEM
U-251 = system: U-251
DU-145 = system: DU-145
OVCAR-5 = system: OVCAR-5
MOLT-4 = system: MOLT-4
Hs-578T = system: Hs-578T
NCI-H226 = system: NCI-H226
A498 = system: A498
HCT-116 = system: HCT-116
MCF7 = system: MCF7
OVCAR-8 = system: OVCAR-8
SF-539 = system: SF-539
HT-29 = system: HT-29
HCT-15 = system: HCT-15
SN12C = system: SN12C
PC-3 = system: PC-3
SF-268 = system: SF-268
UO-31 = system: UO-31
SNB-19 = system: SNB-19
NCI-H460 = system: NCI-H460
TK-10 = system: TK-10
SNB-75 = system: SNB-75
SW-620 = system: SW-620
BT-549 = system: BT-549
SK-MEL-5 = system: SK-MEL-5
CAKI-1 = system: CAKI-1
HOP-62 = system: HOP-62
K562 = system: K562
SK-OV-3 = system: SK-OV-3
MDA-N = system: MDA-N
HOP-92 = system: HOP-92
T47D = system: T47D
HL-60 = system: HL-60
HCC 2998 = system: HCC 2998
SK-MEL-2 = system: SK-MEL-2
786-0 = system: 786-0
OVCAR-4 = system: OVCAR-4
ACHN = system: ACHN
SF-295 = system: SF-295
M14 = system: M14
LOX IMVI = system: LOX IMVI
MDA-MB-435 = system: MDA-MB-435
SR = system: SR
NCI-H522 = system: NCI-H522
RPMI-8226 = system: RPMI-8226
RXF 393 = system: RXF 393
NCI-H23 = system: NCI-H23
EKVX = system: EKVX
MDA-MB-231 = system: MDA-MB-231
IGROV-1 = system: IGROV-1
KM12 = system: KM12
Malme-3M = system: Malme-3M
NCI/ADR-RES = system: NCI/ADR-RES
UACC-62 = system: UACC-62
UACC-257 = system: UACC-257

O=C(NCCNCCNCCNC(=O)c1cc(-c2ccccc2)nc2ccccc12)c1cc(-c2ccccc2)nc2ccccc12
GI50 (SK-MEL-28): 1700 nM (inactive)
GI50 (COLO 205): 1990 nM (inactive)
GI50 (OVCAR-3): 2640 nM (inactive)
GI50 (A549): 5830 nM (inactive)
GI50 (CCRF-CEM): 2280 nM (inactive)
GI50 (U-251): 1730 nM (inactive)
GI50 (DU-145): 3240 nM (inactive)
GI50 (OVCAR-5): 1870 nM (inactive)
GI50 (MOLT-4): 1950 nM (inactive)
GI50 (Hs-578T): 2250 nM (inactive)
GI50 (NCI-H226): 2640 nM (inactive)
GI50 (A498): 3160 nM (inactive)
GI50 (HCT-116): 1880 nM (inactive)
GI50 (MCF7): 2040 nM (inactive)
GI50 (OVCAR-8): 2080 nM (inactive)
GI50 (SF-539): 2080 nM (inactive)
GI50 (HT-29): 1700 nM (inactive)
GI50 (HCT-15): 7080 nM
GI50 (SN12C): 3070 nM (inactive)
GI50 (PC-3): 3480 nM (inactive)
GI50 (SF-268): 3400 nM (inactive)
GI50 (UO-31): 6900 nM (inactive)
GI50 (SNB-19): 3790 nM (inactive)
GI50 (NCI-H460): 1790 nM (inactive)
GI50 (TK-10): 3010 nM (inactive)
GI50 (SNB-75): 1780 nM (inactive)
GI50 (SW-620): 1830 nM (inactive)
GI50 (BT-549): 7520 nM (inactive)
GI50 (SK-MEL-5): 1520 nM (inactive)
GI50 (CAKI-1): 15300 nM (inactive)
GI50 (HOP-62): 2510 nM (inactive)
GI50 (K562): 1940 nM (inactive)
GI50 (SK-OV-3): 3020 nM (inactive)
GI50 (MDA-N): 1600 nM (inactive)
GI50 (HOP-92): 1920 nM (inactive)
GI50 (T47D): 2680 nM (inactive)
GI50 (HL-60): 1740 nM (inactive)
GI50 (HCC 2998): 1710 nM (inactive)
GI50 (SK-MEL-2): 1540 nM (inactive)
GI50 (786-0): 1660 nM (inactive)
GI50 (OVCAR-4): 3430 nM (inactive)
GI50 (ACHN): 2130 nM (inactive)
GI50 (SF-295): 1670 nM (inactive)
GI50 (M14): 1820 nM (inactive)
GI50 (LOX IMVI): 1560 nM (inactive)
GI50 (MDA-MB-435): 1810 nM (inactive)
GI50 (SR): 2020 nM (inactive)
GI50 (NCI-H522): 1670 nM (inactive)
GI50 (RPMI-8226): 2450 nM (inactive)
GI50 (RXF 393): 2020 nM (inactive)
GI50 (NCI-H23): 3150 nM (inactive)
GI50 (EKVX): 5960 nM (inactive)
GI50 (MDA-MB-231): 2960 nM (inactive)
GI50 (IGROV-1): 2520 nM (inactive)
GI50 (KM12): 2240 nM (inactive)
GI50 (Malme-3M): 1870 nM (inactive)
GI50 (NCI/ADR-RES): 13400 nM (inactive)
GI50 (UACC-62): 2050 nM (inactive)
GI50 (UACC-257): 1720 nM (inactive)

From ChEMBL document CHEMBL1201862, “PubChem BioAssay data set” (2004)
